This note sets out measurements from patent publication US10709692B2, “Isoxazolidine derived inhibitors of receptor interacting protein kinase 1 (RIPK1)” (Denali Therapeutics Inc., priority 2015, dated 2020).

A word on the IC50: it is the concentration needed to halve the response being measured. A lower IC50 goes with greater potency in that assay.

The assay has as its target T1, receptor interacting protein kinase 1 (GST-hRIPK1 (8-327)) (Homo sapiens, UniProt Q13546).
T1 construct: GST-hRIPK1 (8-327) enzyme was generated by Proteros GmbH by Baculovirus expression system
T1 sequence (Q13546 8-327): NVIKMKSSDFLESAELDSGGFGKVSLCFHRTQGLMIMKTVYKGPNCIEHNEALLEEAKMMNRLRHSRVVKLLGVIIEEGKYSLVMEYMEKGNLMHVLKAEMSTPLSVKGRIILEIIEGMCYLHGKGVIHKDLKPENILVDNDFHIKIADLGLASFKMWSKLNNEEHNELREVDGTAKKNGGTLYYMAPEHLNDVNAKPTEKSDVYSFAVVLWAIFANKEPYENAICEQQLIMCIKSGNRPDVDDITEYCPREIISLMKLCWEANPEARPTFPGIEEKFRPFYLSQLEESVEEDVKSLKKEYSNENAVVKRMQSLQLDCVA
Put plainly: Fluorescent Polarization Binding (FP Binding) assay. The note with it: 10 nM GST-hRIPK1 (8-327), 5 nM fluorescent-labeled ligand, 30 min at RT. Here is the method: Fluorescent Polarization Binding (FP Binding) assay (Berger S. B. et al. (2015) Cell Death Discovery, 1: 15009; Maki J. L. et al. (2012) Anal Biochem., 427(2): 164-174) was performed in polystyrene low volume 384-well black plate, at Room Temperature (RT) in a final volume of 10.1 μl/well using 10 nM of GST-hRIPK1 (8-327) enzyme and 5 nM of fluorescent-labeled ligand (14-(2-{[3-({2-{[4-(cyanomethyl)phenyl]amino}-6-[(5-cyclopropyl-1H-pyrazol-3-yl)amino]-4-pyrimidinyl}amino) propyl]amino}-2-oxoethyl)-16,16,18,18-tetramethyl-6,7,7a,8a,9,10,16,18-octahydrobenzo[2″3″]indolizino[8″, 0.7″:5′,6′]pyrano[3′,2′:3,4]pyrido[1,2-a]indol-5-ium-2-sulfonate.
Test compounds were serially diluted in DMSO at 100 fold final concentrations in the assay (1% DMSO final). In each well of a 384-well Plate were dispensed 0.1 μL of compound solution (or DMSO for controls) followed by 5 μL of GST-hRIPK1 (8-327) at twice the final concentrations in assay-buffer (50 mM HEPES pH 7.5, 10 mM NaCl, 50 mM MgCl2, 0.02% CHAPS, 0.5 mM DTT and 0.01% Pluronic F127). For negative control the enzyme addition was replaced by assay buffer only.
After addition of 5 μL of fluorescent-labeled ligand at twice the final concentrations in assay buffer, the plate was incubated at RT for 30 min. At the end, the binding was measured as FP value with the Envision (PerkinElmer) plate reader using filter for an excitation λ=531 nm FP and an emission λ=595 nm FP (S & P-pol).
Test compound inhibition was expressed as percent inhibition of internal assay controls. For concentration response curves, normalized data is fit and IC50 determined using XL-fit (IDBS) for Excel. IC50 were averaged to determine a mean value, for a minimum of two independent experiments.
Receptor interacting protein kinase 1 activity of exemplary compounds was determined according to the above general procedures.
Receptor interacting protein kinase 1 activity of certain compounds was determined according to the above general procedures.
Take `Cn1c(C#N)ccc1C(=O)N1OCC[C@@H]1c1ccc(F)cc1` [Compound 59, 5-[(3R)-3-(4-fluorophenyl)-1,2-oxazolidine-2-carbonyl]-1-methyl-1H-pyrrole-2-carbonitrile]: the 50% inhibitory concentration (IC50) is > 10000 nM.

Consider `Cn1c(C#N)ccc1C(=O)N1OCC[C@H]1c1ccc(F)cc1` [Compound 60, 5-[(3S)-3-(4-fluorophenyl)-1,2-oxazolidine-2-carbonyl]-1-methyl-1H-pyrrole-2-carbonitrile], for which the IC50 is < 1000 nM.

For the molecule `CC(C)(C)C(=O)N1OCC[C@@H]1c1cccnc1F` [Compound 63, 1-[(3R)-3-(2-Fluoropyridin-3-yl)-1,2-oxazolidin-2-yl]-2,2-dimethylpropan-1-one], the IC50 was 1000 to 10000 nM.

For `CC(C)C(=O)N1OCC[C@@H]1c1ccc(F)cc1` [Compound 65, 1-[(3R)-3-(4-Fluorophenyl)-1,2-oxazolidin-2-yl]-2-methylpropan-1-one], the IC50 is > 10000 nM.

For `CC(C)(C)C(=O)N1OCC[C@H]1c1cccnc1F` [Compound 66, 1-[(3S)-3-(2-Fluoropyridin-3-yl)-1,2-oxazolidin-2-yl]-2,2-dimethylpropan-1-one], the IC50 is < 1000 nM.

As for `CC(C)(C)C(=O)N1OCC[C@@H]1c1c(F)cccc1F` [Compound 67, 1-[(3R)-3-(2,6-Difluorophenyl)-1,2-oxazolidin-2-yl]-2,2-dimethylpropan-1-one], the IC50 fell in the range of 1000 to 10000 nM.

As to `CC(C)(C)C(=O)N1OCC[C@H]1c1c(F)cccc1F` [Compound 68, 1-[(3S)-3-(2,6-Difluorophenyl)-1,2-oxazolidin-2-yl]-2,2-dimethylpropan-1-one], the 50% inhibitory concentration (IC50) is < 1000 nM.

With `O=C([C@H]1C[C@H](O)C1)N1OCC[C@H]1c1ccccc1` [Compound 75, (1r,3r)-3-[(3S)-3-Phenyl-1,2-oxazolidine-2-carbonyl]cyclobutan-1-ol], the IC50 is 1000 to 10000 nM.

Turning to `COCC1(C(=O)N2OCC[C@H]2c2ccccc2)CC1` [Compound 76, (3S)-2-[1-(Methoxymethyl)cyclo-propanecarbonyl]-3-phenyl-1,2-oxazolidine], the half-inhibitory concentration (IC50) was in the range of 1000 to 10000 nM.

`CC(C)(C)C(=O)N1OCC[C@@H]1c1cccc(F)c1` [Compound 82, (R)-1-(3-(3-fluorophenyl)isoxazolidin-2-yl)-2,2-dimethylpropan-1-one]: the IC50 fell in the range of 1000 to 10000 nM.

With `CC(C)(C)C(=O)N1OCC[C@H]1c1ccc(Cl)cn1` [Compound 89, 1-[(3S)-3-(5-chloropyridin-2-yl)-1,2-oxazolidin-2-yl]-2,2-dimethylpropan-1-one], the IC50 is < 1000 nM.

`CC1(C(=O)N2OCC[C@H]2c2ccc(F)cc2)CN(CC(F)F)C1` [Compound 90, (3S)-2-[1-(2,2-difluoroethyl)-3-methylazetidine-3-carbonyl]-3-(4-fluorophenyl)-1,2-oxazolidine]: the IC50 was < 1000 nM.

For `CC1(S(=O)(=O)N2OCC[C@H]2c2ccc(F)nc2)CC1` [Compound 93, 2-fluoro-5-[(3S)-2-[(1-methylcyclopropyl)sulfonyl]-1,2-oxazolidin-3-yl]pyridine], the IC50 lay within 1000 to 10000 nM.

Consider `CC(C)(CO)C(=O)N1OCC[C@H]1c1ccc(F)cc1` [Compound 96, 1-[(3S)-3-(4-fluorophenyl)-1,2-oxazolidin-2-yl]-3-hydroxy-2,2-dimethylpropan-1-one], for which the IC50 was < 1000 nM.

For the molecule `Cc1cnc([C@@H]2CCON2C(=O)C(C)(C)CC#N)cn1` [Compound 104, 3,3-dimethyl-4-[(3S)-3-(5-methylpyrazin-2-yl)-1,2-oxazolidin-2-yl]-4-oxobutanenitrile], the IC50 is < 1000 nM.

With `CC(C)(C)C(=O)N1OCC[C@H]1c1ccc(C(F)F)nc1` [Compound 105, 1-[(3S)-3-[6-(difluoromethyl)pyridin-3-yl]-1,2-oxazolidin-2-yl]-2,2-dimethylpropan-1-one], the IC50 was < 1000 nM.

Turning to `CC(C)(C)C(=O)N1OCC[C@H]1c1ccn2ccnc2c1` [Compound 110, 1-[(3S)-3-{imidazo[1,2-A]pyridin-7-yl}-1-oxazolidin-2-yl]-2,2-dimethylpropan-1-one], the IC50 is < 1000 nM.

As to `CC(C)(C)C(=O)N1OCC[C@H]1c1cn2ccccc2n1` [Compound 111, 1-(3S)-3-{imidazo[1,2-A]pyridin-2-yl}-1,2-oxazolidin-2-yl-2,2-dimethylpropan-1-one], the IC50 fell in the range of 1000 to 10000 nM.

`CC(C)(C)C(=O)N1OCC[C@H]1c1ccc(C(F)(F)F)nc1` [Compound 120]: the IC50 was < 1000 nM.

Regarding `CC(C)(C)C(=O)N1OCC[C@H]1c1ncc(Cl)cc1F` [Compound 121, 1-[(3S)-3-(5-chloro-3-fluoropyridin-2-yl)-1,2-oxazolidin-2-yl]-2,2-dimethylpropan-1-one], the IC50 was < 1000 nM.

With `CC(C)(C)C(=O)N1OCC[C@H]1c1ccc(C(F)(F)F)cn1` [Compound 122, 2,2-dimethyl-(3S)-3-[5-(trifluoromethyl)pyridin-2-yl-1,2-oxazolidin-2-yl]propan-1-one], the IC50 was < 1000 nM.

For `CC(C)(C)C(=O)N1OCC[C@H]1c1nc(C(F)(F)F)cs1` [Compound 123, 2,2-dimethyl-1-[(3S)-3-[4-(trifluoromethyl)-1,3-thiazol-2-yl]-1,2-oxazolidin-2-yl]propan-1-one], the IC50 is 1000 to 10000 nM.

On to `CC(C)(C)C(=O)N1OCC[C@H]1c1cc2ccccn2n1` [Compound 124, 2,2-dimethyl-1-[(3S)-3-{pyrazolo[1,5-A]pyridin-2-yl}-1,2-oxazolidin-2-yl]propan-1-one], for which the IC50 is < 1000 nM.

Turning to `Cc1ncc([C@@H]2CCON2C(=O)C(C)(C)C)cn1` [Compound 125, 2,2-dimethyl-1-[(3S)-3-(2-methylpyrimidin-5-yl)-1,2-oxazolidin-2-yl]propan-1-one], the half-maximal inhibitory concentration (IC50) was < 1000 nM.

Turning to `Cc1ncc([C@@H]2CCON2C(=O)C(C)(C)C(F)F)cn1` [Compound 126, 3,3-difluoro-2,2-dimethyl-1-[(3S)-3-(2-methylpyrimidin-5-yl)-1,2-oxazolidin-2-yl]propan-1-one], the IC50 is < 1000 nM.

As for `CC(C)(C)C(=O)N1OCC[C@H]1c1ccc(F)cn1` [Compound 127, 1-[(3S)-3-(5-fluoropyridin-2-yl)-1,2-oxazolidin-2-yl]-2,2-dimethylpropan-1-one], the IC50 is < 1000 nM.

For `CC(C)(C)C(=O)N1OCC[C@H]1c1ccc(C(F)F)cc1` [Compound 128, 1-[(3S)-3-[4-(difluoromethyl)phenyl]-1,2-oxazolidin-2-yl]-2,2-dimethylpropan-1-one], the half-maximal inhibitory concentration (IC50) is < 1000 nM.

`CC(C)(CC#N)C(=O)N1OCC[C@H]1c1ccc(C(F)F)nc1` [Compound 131, 4-(3S)-3-[6-(difluoromethyl)pyridin-3-yl]-1,2-oxazolidin-2-yl-3,3-dimethyl-4-oxobutanenitrile]: the IC50 was < 1000 nM.

In the case of `CC(C)(C)C(=O)N1OCC[C@H]1c1ccn2nccc2c1` [Compound 132, 2,2-dimethyl-1-[(3S)-3-{pyrazolo[1,5-a]pyridin-5-yl}-1,2-oxazolidin-2-yl]propan-1-one], the concentration for half-maximal inhibition (IC50) is < 1000 nM.

For the molecule `CC(C)(C)C(=O)N1OCC[C@H]1c1cncc(F)c1` [Compound 133, 1-[(3S)-3-(5-fluoropyridin-3-yl)-1,2-oxazolidin-2-yl]-2,2-dimethylpropan-1-one], the IC50 is < 1000 nM.

Consider `CC(C)(C)C(=O)N1OCC[C@@H]1c1ccc(F)cc1F` [Compound 134, 1-[(3R)-3-(2,4-difluorophenyl)-1,2-oxazolidin-2-yl]-2,2-dimethylpropan-1-one], for which the IC50 is < 1000 nM.

For the molecule `CC(C)(C)C(=O)N1OCC[C@H]1c1ccc(F)cc1F` [Compound 135, 1-[(3S)-3-(2,4-difluorophenyl)-1,2-oxazolidin-2-yl]-2,2-dimethylpropan-1-one], the IC50 is < 1000 nM.

With `Cc1cnc([C@@H]2CCON2C(=O)C(C)(C)C)cn1` [Compound 138, 2,2-dimethyl-1-[(3S)-3-(5-methylpyrazin-2-yl)-1,2-oxazolidin-2-yl]propan-1-one], the IC50 was < 1000 nM.

As for `CC(C)(COC(F)(F)F)C(=O)N1OCC[C@H]1c1cncc(F)c1` [Compound 139, 1-[(3S)-3-(5-fluoropyridin-3-yl)-1,2-oxazolidin-2-yl]-2,2-dimethyl-3-(trifluoromethoxy)propan-1-one], the IC50 was < 1000 nM.
